Source: patent publication US20170042780A1, “DENTIFRICE COMPOSITION WITH GUM BLEEDING RELIEF EFFICACY” (COLGATE-PALMOLIVE COMPANY, priority 2015, published 2017)

Tested on: experimental animal plasma
Assay: In-vitro Prothrombin Time (PT) Test
Format: biochemical
Conditions: for Prothrombin Time: coagulant ingredient 1 weight % in water, 0.05 mL sample + 0.1 mL plasma, 37° C., thromboplastin added, mean of 10 repeats
Experimental: An In-vitro Prothrombin Time (PT) Test has been designed to test the coagulant efficacy (see Luz, L. et at., International Journal of Biological Macromolecules, 58 (2013), p. 31-36). […] The experimental methodology used was: […] When testing the “Toothpastes” in Table 2, below, a toothpaste slurry was prepared by mixing 1 part of the toothpaste under test with 2 parts DI water (all parts being parts by weight); then the supernatant was obtained by centrifuging the slurry for 20 mins at 8000 rpm. 0.1 mL of experimental animal plasma was placed in each testing tube (animal blood samples used in the experiment were waste products, and the animals were otherwise used for food). 0.05 mL of the test samples (0.05 mL of DI water or saline solution in control group) were added to separate tubes and mixed with the plasma. The mixtures were then heated in a water bath at 37° C. for 3 min, then 0.2 mL of thromboplastin (which had been preheated to 37° C.) was added to each testing tube and the contents mixed. A stopwatch was started immediately upon adding the thromboplastin to record the coagulation time (Prothrombin Time).

NCc1ccc(C(=O)O)cc1 [4-(aminomethyl)benzoic acid]
Prothrombin Time: 11.14 s
clotting time compared with the controls (DI water and saline solution) (ingredient 1 weight % in water): significantly lower clotting time than the controls
difference in clotting time between tranexamic acid and 4-(aminomethyl) benzoic acid (ingredients 1 weight % in water): No significant difference

NC[C@H]1CC[C@H](C(=O)O)CC1 [Tranexamic acid, tranexamic acid, reference compound]
Prothrombin Time: 11.66 s
